Reference: patent publication US20120190613A1, “ECHINOCANDIN DERIVATIVES” (priority 2009, published 2012)
Marks after values point to notes of the source that are not given here.

Tested on: C. albicans R303
Assay: Mouse candidiasis infection model, C. albicans density in kidneys
Type: in vivo, female CD-1 mice
Conditions: for Difference from 24-hr control / Mean log10 CFU/kidneys (±SD) / Difference from 24-h control / Mean log10 CFU/kidneys (±SEM): kidneys at 24 hr
Protocol: The objective of these studies was to evaluate the efficacy of test compounds in the mouse candidiasis infection model.
The strain, C. albicans R303 was transferred from frozen storage onto Sabauroud dextrose agar (SDA) plates and grown for ˜24 hr at 35° C. The inoculum was prepared by transferring colonies from the plate to phosphate buffered saline (PBS) and the concentration adjusted to 10^6 CFU/mL with the aid of a spectrophotometer. The stock was diluted 1:9 to prepare the inoculum. Prior to each run the concentration was verified using the dilution plate count method.
The female CD-1 mice used in this study were obtained from Charles River Laboratories, Portage, MI. The animals were approximately seven-weeks-old at the start of the study and weighed about 16-26 g.
In one approach, mice were made neutropenic with IP injections of cyclophosphamide (150 mg/kg in 10 mL/kg) at 4 and 1 day before inoculation. Each animal was inoculated with the appropriate concentration by injecting 0.1 mL of inoculum into a tail vein. The test compounds were administered IP at 2 hr after infection.
The kidneys were collected from four mice in control group 1 (untreated) at 2 hr after infection, and from the remaining mice in the study at 24 hr after infection. Kidneys were removed aseptically from each mouse and were combined in a sterile tube. An aliquot (2 mL) of sterile PBS was added to each tube and the contents homogenized with a tissue homogenizer (Polytron 3100). Serial dilutions of the tissue homogenates were conducted and 0.1 mL aliquots were spread on SDA plates and the plates incubated at 35° C. overnight. The CFU/kidneys were determined from colony counts. Data were analyzed using one-way ANOVA with the Tukey-Kramer Multiple Comparisons Test (GraphPad InStat version 3.06, GraphPad Software, San Diego, Calif.).
Treatments were administered at 2 hr after infection with 2.1×10^5 CFU/mL of the organism. Data are the means of four mice.
Treatments were administered at 2 hr after infection with 6.4×10^5 CFU/mL of the organism. Data are the means of four mice.
Treatments were administered at 2 hr after infection with 3.8×10^5 CFU/mL of the organism. Data are the means of four mice.
Treatments were administered at 2 hr after infection with 3.8×10^5 CFU/rnL of the organism. Data are the means of four mice.

[1] = Second run, 5 mg/kg IP 2 hr after infection
[2] = Fourth run, 0.5 mg/kg IP 2 hr after infection
[3] = Fourth run, 1.5 mg/kg IP 2 hr after infection
[4] = Fourth run, 4.5 mg/kg IP 2 hr after infection
[5] = Third run, 0.5 mg/kg IP 2 hr after infection
[6] = Third run, 1.5 mg/kg IP 2 hr after infection
[7] = Third run, 4.5 mg/kg IP 2 hr after infection

**Q.** `CCC(C)CC(C)CCCCCCCCC(=O)NC1CC(O)C(NCCN)NC(=O)C2C(O)CCN2C(=O)C(C(O)CCNC(=O)OCCOCCOCCOC)NC(=O)C(C(O)C(O)c2ccc(O)cc2)NC(=O)C2CC(O)CN2C(=O)C(C(C)O)NC1=O` (stereo not drawn) [Compound 15] was tested. Which “Difference from 24-hr control” value [1] did it give?
**A.** −0.45 ns log10 CFU/kidneys

**Q.** What about the “Mean log10 CFU/kidneys (±SD)” value [1] of the same molecule?
**A.** 4.75 ± 0.20 log10 CFU/kidneys

**Q.** With `CCC(C)CC(C)CCCCCCCCC(=O)NC1CC(O)C(NCCOCCOCCOCCOC)NC(=O)C2C(O)CCN2C(=O)C(C(O)CCN)NC(=O)C(C(O)C(O)c2ccc(O)cc2)NC(=O)C2CC(O)CN2C(=O)C(C(C)O)NC1=O` (stereo not drawn) [Compound 16] as the molecule, how does the “Difference from 24-h control” value [2] read?
**A.** −0.16 ns log10 CFU/kidneys

**Q.** And the “Mean log10 CFU/kidneys (±SEM)” value [2]?
**A.** 5.05 ± 0.12 log10 CFU/kidneys

**Q.** And the “Difference from 24-h control” value [3]?
**A.** −0.04 ns log10 CFU/kidneys

**Q.** What about the “Mean log10 CFU/kidneys (±SEM)” value [3] of the same molecule?
**A.** 5.16 ± 0.03 log10 CFU/kidneys

**Q.** What about the “Difference from 24-h control” value [4] of the same molecule?
**A.** −0.42 ns log10 CFU/kidneys

**Q.** What about the “Mean log10 CFU/kidneys (±SEM)” value [4] of the same molecule?
**A.** 4.78 ± 0.18 log10 CFU/kidneys

**Q.** And the “Effect on density of C. albicans in the kidneys” value (Fourth run, all dose levels (0.5, 1.5, 4.5 mg/kg))?
**A.** ineffective

**Q.** `CCC(C)CC(C)CCCCCCCCC(=O)NC1CC(O)C(NCCOC)NC(=O)C2C(O)CCN2C(=O)C(C(O)CCN)NC(=O)C(C(O)C(O)c2ccc(O)cc2)NC(=O)C2CC(O)CN2C(=O)C(C(C)O)NC1=O` (stereo not drawn) [Compound 17] was tested. Which “Effect on density of C. albicans in the kidneys” value (Fourth run, 0.5 mg/kg) did it give?
**A.** not

**Q.** What about the “Difference from 24-h control” value [2] of the same molecule?
**A.** −0.87 ns log10 CFU/kidneys

**Q.** And the “Mean log10 CFU/kidneys (±SEM)” value [2]?
**A.** 4.33 ± 0.14 log10 CFU/kidneys

**Q.** What about the “Difference from 24-h control” value [3] of the same molecule?
**A.** −2.09*** log10 CFU/kidneys

**Q.** What about the “Mean log10 CFU/kidneys (±SEM)” value [3] of the same molecule?
**A.** 3.11 ± 0.14 log10 CFU/kidneys

**Q.** And the “Difference from 24-h control” value [4]?
**A.** −4.25*** log10 CFU/kidneys

**Q.** And the “Mean log10 CFU/kidneys (±SEM)” value [4]?
**A.** 0.95 ± 0.55 log10 CFU/kidneys

**Q.** What about the “Effect on density of C. albicans in the kidneys” value (Fourth run, 4.5 and 1.5 mg/kg) of the same molecule?
**A.** significantly reduced the density

**Q.** What does the source list for `CCCCCOc1ccc(-c2ccc(-c3ccc(C(=O)NC4CC(O)C(OCCOC)NC(=O)C5C(O)C(C)CN5C(=O)C(C(C)O)NC(=O)C(C(O)C(O)c5ccc(O)cc5)NC(=O)C5CC(O)CN5C(=O)C(C(C)O)NC4=O)cc3)cc2)cc1` (stereo not drawn) [Compound 18]?
**A.** Difference from 24-hr control [1]: −3.44*** log10 CFU/kidneys; Mean log10 CFU/kidneys (±SD) [1]: 1.76 ± 0.44 log10 CFU/kidneys

**Q.** With `CCCCCOc1ccc(-c2ccc(-c3ccc(C(=O)NC4CC(O)C(OCCOCCOC)NC(=O)C5C(O)C(C)CN5C(=O)C(C(C)O)NC(=O)C(C(O)C(O)c5ccc(O)cc5)NC(=O)C5CC(O)CN5C(=O)C(C(C)O)NC4=O)cc3)cc2)cc1` (stereo not drawn) [Compound 19] as the molecule, how does the “Difference from 24-hr control” value [1] read?
**A.** −3.49*** log10 CFU/kidneys

**Q.** And the “Mean log10 CFU/kidneys (±SD)” value [1]?
**A.** 1.71 ± 0.35 log10 CFU/kidneys

**Q.** What about the “Difference from 24-hr control” value [5] of the same molecule?
**A.** −0.03 ns log10 CFU/kidneys

**Q.** What about the “Mean log10 CFU/kidneys (±SEM)” value [5] of the same molecule?
**A.** 4.84 ± 0.26 log10 CFU/kidneys

**Q.** And the “Difference from 24-hr control” value [6]?
**A.** −2.06*** log10 CFU/kidneys

**Q.** What about the “Mean log10 CFU/kidneys (±SEM)” value [6] of the same molecule?
**A.** 2.82 ± 0.10 log10 CFU/kidneys

**Q.** And the “Difference from 24-hr control” value [7]?
**A.** −3.82*** log10 CFU/kidneys

**Q.** And the “Mean log10 CFU/kidneys (±SEM)” value [7]?
**A.** 1.05 ± 0.36 log10 CFU/kidneys

**Q.** With `CCCCCOc1ccc(-c2ccc(-c3ccc(C(=O)NC4CC(O)C(OCCOCCOCCOC)NC(=O)C5C(O)C(C)CN5C(=O)C(C(C)O)NC(=O)C(C(O)C(O)c5ccc(O)cc5)NC(=O)C5CC(O)CN5C(=O)C(C(C)O)NC4=O)cc3)cc2)cc1` (stereo not drawn) [Compound 20] as the molecule, how does the “Difference from 24-hr control” value [1] read?
**A.** −3.27*** log10 CFU/kidneys

**Q.** And the “Mean log10 CFU/kidneys (±SD)” value [1]?
**A.** 1.93 ± 0.44 log10 CFU/kidneys

**Q.** Which results are given for `CCCCCOc1ccc(-c2ccc(-c3ccc(C(=O)NC4CC(O)C(OCCOCCO)NC(=O)C5C(O)C(C)CN5C(=O)C(C(C)O)NC(=O)C(C(O)C(O)c5ccc(O)cc5)NC(=O)C5CC(O)CN5C(=O)C(C(C)O)NC4=O)cc3)cc2)cc1` (stereo not drawn) [Compound 21]?
**A.** Difference from 24-hr control [5]: −1.53** log10 CFU/kidneys; Mean log10 CFU/kidneys (±SEM) [5]: 3.35 ± 0.08 log10 CFU/kidneys; Difference from 24-hr control [6]: −2.62*** log10 CFU/kidneys; Mean log10 CFU/kidneys (±SEM) [6]: 2.26 ± 0.12 log10 CFU/kidneys; Difference from 24-hr control [7]: −4.22*** log10 CFU/kidneys; Mean log10 CFU/kidneys (±SEM) [7]: 0.65 ± 0.38 log10 CFU/kidneys; Effect on density of C. albicans in the kidneys compared to the infected controls (Third run, all dose levels (0.5, 1.5, 4.5 mg/kg)): significantly reduced the density
